Laboratory results from ChEMBL document CHEMBL1201862, “PubChem BioAssay data set” (2004).
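Exposure lasted 48 hours, with cells grown in 96-well plates and compounds tested at five concentrations. Abbreviation: GI50, concentration required for 50% inhibition of growth.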 The source made the active and inactive calls. Cut-off read from the data, not from the text of the source: active = GI50 up to about 1.1 µM and inactive = higher.

Tests used:
Assay in all cases: NCI tumour cell line growth inhibition, 48 h
HCT-15 = tested on: HCT-15
HCC 2998 = tested on: HCC 2998
SK-MEL-2 = tested on: SK-MEL-2
MOLT-4 = tested on: MOLT-4
COLO 205 = tested on: COLO 205
SF-268 = tested on: SF-268
KM-20L2 = tested on: KM-20L2
U-251 = tested on: U-251
OVCAR-3 = tested on: OVCAR-3
HOP-62 = tested on: HOP-62
NCI-H23 = tested on: NCI-H23
SF-295 = tested on: SF-295
HCT-116 = tested on: HCT-116
SK-MEL-5 = tested on: SK-MEL-5
OVCAR-4 = tested on: OVCAR-4
UACC-257 = tested on: UACC-257
SNB-19 = tested on: SNB-19
A498 = tested on: A498
NCI-H522 = tested on: NCI-H522
786-0 = tested on: 786-0
SW-620 = tested on: SW-620
SNB-75 = tested on: SNB-75
DMS-114 = tested on: DMS-114
DLD-1 = tested on: DLD-1
SR = tested on: SR
NCI-H460 = tested on: NCI-H460
LXFL 529 = tested on: LXFL 529
UACC-62 = tested on: UACC-62
XF498 = tested on: XF498
M19-MEL = tested on: M19-MEL
EKVX = tested on: EKVX
Malme-3M = tested on: Malme-3M
SNB-78 = tested on: SNB-78
NCI-H226 = tested on: NCI-H226
HOP-18 = tested on: HOP-18
OVCAR-5 = tested on: OVCAR-5
A549 = tested on: A549
DMS-273 = tested on: DMS-273
KM12 = tested on: KM12
ACHN = tested on: ACHN
CAKI-1 = tested on: CAKI-1
K562 = tested on: K562
SN12C = tested on: SN12C
UO-31 = tested on: UO-31
SK-OV-3 = tested on: SK-OV-3
M14 = tested on: M14
IGROV-1 = tested on: IGROV-1
TK-10 = tested on: TK-10
HL-60 = tested on: HL-60
HT-29 = tested on: HT-29
RPMI-8226 = tested on: RPMI-8226
SF-539 = tested on: SF-539
SK-MEL-28 = tested on: SK-MEL-28
LOX IMVI = tested on: LOX IMVI
OVCAR-8 = tested on: OVCAR-8
CCRF-CEM = tested on: CCRF-CEM
HOP-92 = tested on: HOP-92
RXF 393 = tested on: RXF 393
RXF 631 = tested on: RXF 631

SMILES: COc1cc2oc(-c3ccc(O)cc3)cc(=O)c2c(O)c1C1OC(CO)C(O)C(O)C1O (stereo not drawn)
- GI50 (HCT-15): > 100 µM
- GI50 (HCC 2998): > 100 µM (inactive)
- GI50 (SK-MEL-2): > 100 µM (inactive)
- GI50 (MOLT-4): > 100 µM (inactive)
- GI50 (COLO 205): > 100 µM (inactive)
- GI50 (SF-268): > 100 µM (inactive)
- GI50 (KM-20L2): > 100 µM (inactive)
- GI50 (U-251): > 100 µM (inactive)
- GI50 (OVCAR-3): > 100 µM (inactive)
- GI50 (HOP-62): > 100 µM (inactive)
- GI50 (NCI-H23): > 100 µM (inactive)
- GI50 (SF-295): > 100 µM (inactive)
- GI50 (HCT-116): > 100 µM (inactive)
- GI50 (SK-MEL-5): > 100 µM (inactive)
- GI50 (OVCAR-4): > 100 µM (inactive)
- GI50 (UACC-257): > 100 µM (inactive)
- GI50 (SNB-19): > 100 µM (inactive)
- GI50 (A498): > 100 µM (inactive)
- GI50 (NCI-H522): > 100 µM (inactive)
- GI50 (786-0): > 100 µM (inactive)
- GI50 (SW-620): 11.5 µM (inactive)
- GI50 (SNB-75): > 100 µM (inactive)
- GI50 (DMS-114): > 100 µM (inactive)
- GI50 (DLD-1): > 100 µM (inactive)
- GI50 (SR): > 100 µM (inactive)
- GI50 (NCI-H460): > 100 µM (inactive)
- GI50 (LXFL 529): > 100 µM (inactive)
- GI50 (UACC-62): > 100 µM (inactive)
- GI50 (XF498): > 100 µM (inactive)
- GI50 (M19-MEL): > 100 µM (inactive)
- GI50 (EKVX): > 100 µM (inactive)
- GI50 (Malme-3M): > 100 µM (inactive)
- GI50 (SNB-78): > 100 µM (inactive)
- GI50 (NCI-H226): > 100 µM (inactive)
- GI50 (HOP-18): > 100 µM (inactive)
- GI50 (OVCAR-5): > 100 µM (inactive)
- GI50 (A549): > 100 µM (inactive)
- GI50 (DMS-273): 62.4 µM (inactive)
- GI50 (KM12): > 100 µM (inactive)
- GI50 (ACHN): > 100 µM (inactive)
- GI50 (CAKI-1): > 100 µM (inactive)
- GI50 (K562): > 100 µM (inactive)
- GI50 (SN12C): > 100 µM (inactive)
- GI50 (UO-31): > 100 µM (inactive)
- GI50 (SK-OV-3): > 100 µM (inactive)
- GI50 (M14): > 100 µM (inactive)
- GI50 (IGROV-1): > 100 µM (inactive)
- GI50 (TK-10): > 100 µM (inactive)
- GI50 (HL-60): > 100 µM (inactive)
- GI50 (HT-29): > 100 µM (inactive)
- GI50 (RPMI-8226): > 100 µM (inactive)
- GI50 (SF-539): > 100 µM (inactive)
- GI50 (SK-MEL-28): > 100 µM (inactive)
- GI50 (LOX IMVI): > 100 µM (inactive)
- GI50 (OVCAR-8): > 100 µM (inactive)
- GI50 (CCRF-CEM): > 100 µM (inactive)

SMILES: CC1=C(C(=O)Nc2cccc(Cl)c2)C(c2ccc([N+](=O)[O-])cc2)C(C(=O)Nc2cccc(Cl)c2)=C(C)N1
- GI50 (HCT-15): 23.7 µM
- GI50 (HCC 2998): 17.9 µM (inactive)
- GI50 (SK-MEL-2): 18.3 µM (inactive)
- GI50 (MOLT-4): 10.3 µM (inactive)
- GI50 (COLO 205): 34.5 µM (inactive)
- GI50 (SF-268): 27 µM (inactive)
- GI50 (HOP-92): 11.5 µM (inactive)
- GI50 (RXF 393): 19.5 µM (inactive)
- GI50 (KM-20L2): 20.2 µM (inactive)
- GI50 (U-251): 15.8 µM (inactive)
- GI50 (OVCAR-3): 25.6 µM (inactive)
- GI50 (HOP-62): 29 µM (inactive)
- GI50 (NCI-H23): 21.3 µM (inactive)
- GI50 (SF-295): 23.6 µM (inactive)
- GI50 (HCT-116): 13.1 µM (inactive)
- GI50 (SK-MEL-5): 17.5 µM (inactive)
- GI50 (OVCAR-4): 20.7 µM (inactive)
- GI50 (UACC-257): 16.7 µM (inactive)
- GI50 (SNB-19): 37.2 µM (inactive)
- GI50 (A498): 33.1 µM (inactive)
- GI50 (NCI-H522): 26.3 µM (inactive)
- GI50 (786-0): 22 µM (inactive)
- GI50 (SW-620): > 10 µM (inactive)
- GI50 (SNB-75): 10.7 µM (inactive)
- GI50 (DMS-114): 21.2 µM (inactive)
- GI50 (DLD-1): 21.8 µM (inactive)
- GI50 (NCI-H460): 20.1 µM (inactive)
- GI50 (LXFL 529): 23.5 µM (inactive)
- GI50 (UACC-62): 14 µM (inactive)
- GI50 (EKVX): 33.3 µM (inactive)
- GI50 (Malme-3M): 21 µM (inactive)
- GI50 (SNB-78): 36.1 µM (inactive)
- GI50 (NCI-H226): 26.9 µM (inactive)
- GI50 (HOP-18): 16.5 µM (inactive)
- GI50 (OVCAR-5): 48 µM (inactive)
- GI50 (A549): 28.9 µM (inactive)
- GI50 (KM12): 21.4 µM (inactive)
- GI50 (ACHN): 25.1 µM (inactive)
- GI50 (K562): 24.8 µM (inactive)
- GI50 (SN12C): 22.3 µM (inactive)
- GI50 (UO-31): 17.7 µM (inactive)
- GI50 (SK-OV-3): 11.9 µM (inactive)
- GI50 (M14): 16.6 µM (inactive)
- GI50 (IGROV-1): 26.5 µM (inactive)
- GI50 (TK-10): 67.3 µM (inactive)
- GI50 (HL-60): 17.9 µM (inactive)
- GI50 (HT-29): 16.6 µM (inactive)
- GI50 (RPMI-8226): 15.5 µM (inactive)
- GI50 (SF-539): 39.8 µM (inactive)
- GI50 (SK-MEL-28): 25.3 µM (inactive)
- GI50 (LOX IMVI): 14.9 µM (inactive)
- GI50 (OVCAR-8): 30.7 µM (inactive)
- GI50 (CCRF-CEM): 10.9 µM (inactive)
- GI50 (RXF 631): 19.8 µM (inactive)

SMILES: CCc1ccc(/N=C\c2cc(OC)c(OC)c(OC)c2)cc1
- GI50 (HCT-15): > 100 µM
- GI50 (SK-MEL-2): > 100 µM (inactive)
- GI50 (MOLT-4): > 100 µM (inactive)
- GI50 (SF-268): > 100 µM (inactive)
- GI50 (HOP-92): > 100 µM (inactive)
- GI50 (RXF 393): > 100 µM (inactive)
- GI50 (KM-20L2): > 100 µM (inactive)
- GI50 (U-251): > 100 µM (inactive)
- GI50 (OVCAR-3): > 100 µM (inactive)
- GI50 (HOP-62): > 100 µM (inactive)
- GI50 (NCI-H23): > 100 µM (inactive)
- GI50 (SF-295): > 100 µM (inactive)
- GI50 (HCT-116): > 100 µM (inactive)
- GI50 (SK-MEL-5): > 100 µM (inactive)
- GI50 (OVCAR-4): > 100 µM (inactive)
- GI50 (UACC-257): > 100 µM (inactive)
- GI50 (SNB-19): > 100 µM (inactive)
- GI50 (A498): > 100 µM (inactive)
- GI50 (NCI-H522): > 100 µM (inactive)
- GI50 (786-0): > 100 µM (inactive)
- GI50 (SW-620): 10.9 µM (inactive)
- GI50 (SNB-75): > 100 µM (inactive)
- GI50 (DMS-114): 40.4 µM (inactive)
- GI50 (DLD-1): 77.8 µM (inactive)
- GI50 (NCI-H460): 37.7 µM (inactive)
- GI50 (LXFL 529): 51.9 µM (inactive)
- GI50 (UACC-62): > 100 µM (inactive)
- GI50 (XF498): > 100 µM (inactive)
- GI50 (M19-MEL): > 100 µM (inactive)
- GI50 (EKVX): > 100 µM (inactive)
- GI50 (Malme-3M): > 100 µM (inactive)
- GI50 (SNB-78): > 100 µM (inactive)
- GI50 (HOP-18): > 100 µM (inactive)
- GI50 (OVCAR-5): > 100 µM (inactive)
- GI50 (A549): > 100 µM (inactive)
- GI50 (DMS-273): > 100 µM (inactive)
- GI50 (KM12): > 100 µM (inactive)
- GI50 (ACHN): > 100 µM (inactive)
- GI50 (CAKI-1): > 100 µM (inactive)
- GI50 (K562): 26.5 µM (inactive)
- GI50 (SN12C): > 100 µM (inactive)
- GI50 (UO-31): > 100 µM (inactive)
- GI50 (SK-OV-3): > 100 µM (inactive)
- GI50 (M14): > 100 µM (inactive)
- GI50 (IGROV-1): > 100 µM (inactive)
- GI50 (TK-10): > 100 µM (inactive)
- GI50 (HT-29): > 100 µM (inactive)
- GI50 (RPMI-8226): 16.6 µM (inactive)
- GI50 (SF-539): > 100 µM (inactive)
- GI50 (SK-MEL-28): > 100 µM (inactive)
- GI50 (LOX IMVI): 20.9 µM (inactive)
- GI50 (OVCAR-8): > 100 µM (inactive)
- GI50 (CCRF-CEM): 40.7 µM (inactive)
